Laboratory results published in patent US20020120001A1, “Compositions containing tryptamines, cartenoids and tocotrienols and having synergistic antioxidant effect” (Ashni Naturaceuticals, Inc., priority 2000, published 2002).
Values after ≈ are worked out from the molar mass of the structure shown. Each block holds one compound with its values, some of them ahead of it.

Experiment: peroxy radical scavenging activity (BODIPY 581/591 C11 fluorescence with AMVN radical generator, microplate; Median Effect/CalcuSyn analysis)
[1] = Example 2, concentration of the named component in the 1:1 melatonin and natural astaxanthin mixture
[2] = Example 4, component of the melatonin and mixed tocotrienols mixture

Procedure: Measurement of peroxy radical scavenging activity of the individual compounds and combinations was performed essentially as described by Naguib (Analytical Biochemistry(1998) 265:290-298) with modifications to allow the assay to be performed on a microplate. The fatty acid indicator 4,4difluoro-5-(4-phenuyl-1,3-butadienyl)-4-bora-3a-4a-diaza-s-indacene-3-undecanate (BODIPY 581/591 C11) was purchased from Molecular Probes (Eugene, Oreg.). As a peroxy radical generator, 2,2′-azobis-2,4-dimethyl valeronitrile (AMVN) was used and obtained from WAKO Chemicals (Richmond, Va.). All standards were of the highest purity commercially available. Additionally, the solvents were of HPLC grade.
Fluorescence measurements were performed using a Packard FluoroCount microplate fluorometer equipped with a temperature-controlled plate holder. All measurements were preformed in a 96-well polypropylene plate with stirring.
Reactions in octane: butyronitrile (9:1, v/v) were carried out at 30° C. All fluorescence measurements were recorded every 15 minutes for 1 hour at excitation wavelengths of 570 nm, with emission at 620 nm. The net protection (area under the curve, AUC) by the antioxidant sample was calculated using the trapezoid method.
The final reaction mixture (200 μl) for the assay contained 0.5 μg/mL BODIPY 581/591C11 and 0.26 M AMVN in octane:butyronitrile (9:1, v/v). Stock solutions of the test samples were made up in chloroform and 6 μL was added to the reaction mixture to achieve the stated concentrations. The reaction was initiated by the addition of the AMVN fluorometric readings were then recorded every 15 minutes for one hour.
Synergy between melatonin and astaxanthin was assessed using CalcuSyn (BIOSOFT, biosoft.com). This statistical package performs multiple drug dose-effect calculations using the Median Effect methods described by T-C Chou and P. Talaly (Trends Pharmacol. Sci. 4:450-454), hereby incorporated by reference.
Cm is determined from the x-intercept of the median-effect plot. The fraction affected by the concentration of the test material is fa and the fraction unaffected by the concentration is fu (fu=1−fa). The exponent m is the parameter signifying the sigmoidicity or shape of the dose-effect curve. It is estimated by the slope of the median-effect plot.
The median-effect plot is a plot of x=log(C) vs y=log(fa/fu) and is based on the logarithmic form of Chou's median-effect equation. The goodness of fit for the data to the median-effect equation is represented by the linear correlation coefficient r of the median-effect plot.
Synergy of test components was quantified using the combination index (CI) parameter. The CI of Chou-Talaly is based on the multiple drug-effect and is derived from enzyme kinetic models (Chou, T.-C. and Talalay, P. (1977) A simple generalized equation for the analysis of multiple inhibitions of Michaelis-Menten kinetic systems. J. Biol. Chem. 252:6438-6442). The equation determines only the additive effect rather than synergism or antagonism. However, we define synergism as a more than the expected additive effect, and antagonism as a less than the expected additive effect as proposed by Cho and Talalay in 1983 (Trends Pharmacol. Sci. (1983) 4:450-454).
Dose-response curves were described with each test article separately and then in a two-way combination. For the individual dose-response curves, concentrations of melatonin included 100, 500 and 1000 μM, while the concentrations of astaxanthin were 49, 98, 490, and 980 μM.

- IC50 (Example 5, test material alone): 148 (94-232) μg test/mL
Compound: CC1=C(/C=C/C(C)=C/C=C/C(C)=C/C=C/C=C(C)/C=C/C=C(C)/C=C/C2=C(C)C(=O)[C@@H](O)CC2(C)C)C(C)(C)C[C@H](O)C1=O [Astaxanthin alone, 3, 3′-dihydroxy-β,β-carotene-4, 4′-dieto-β-carotene]
- IC75 (Example 1, listed as of test material alone): 185 (107-319) μM

- IC50 (Example 3, test material alone): 61 µM
Compound: CC1=C[C@H](O)CC(C)(C)[C@H]1/C=C/C(C)=C/C=C/C(C)=C/C=C/C=C(C)/C=C/C=C(C)/C=C/C1=C(C)C[C@@H](O)CC1(C)C [Lutein alone, lutein]

- IC50 (Example 1, test material alone, 95% confidence interval in parentheses): 284 µM
- IC50 [1]: 38 µg/mL
- IC90 [1]: 77 µg/mL (≈ 331 µM)
- IC50 (Example 2, test material alone): 120 (105-137) μg/mL
- IC50 (Example 3, test material alone): 283 µM
- IC50 (Example 4, test material alone): 53 (25-112) μg test/mL
- IC50 (Example 5, test material alone): 53 (25-112) μg test/mL
Compound: COc1ccc2[nH]cc(CCNC(C)=O)c2c1 [Melatonin alone, N-acetyl-5-methoxytryptamine]
- increase in antioxidant potency (Example 2, component in 1:1 melatonin and natural astaxanthin combination versus alone): 3.2 fold
- IC75 [1]: 54 µg/mL (≈ 232 µM)
- increase in antioxidant potency (Example 4, component in 1:1 melatonin and mixed tocotrienols combination versus alone): 3.1 fold
- concentration for 50 percent inhibition of peroxy radical formation [2]: 17 µg/mL
- concentration for 75 percent inhibition of peroxy radical formation [2]: 21 µg/mL
- concentration for 90 percent inhibition of peroxy radical formation [2]: 26 µg/mL

- IC50 (Example 3, test material alone): 366 µM
Compound: CC1=C(/C=C/C(C)=C/C=C/C(C)=C/C=C/C=C(C)/C=C/C=C(C)/C=C/C2=C(C)CCCC2(C)C)C(C)(C)CCC1 [β-Carotene alone, β-carotene]
